This is an account of results in patent publication US20200000816A1, “COMPOUND HAVING SOMATOSTATIN RECEPTOR AGONISTIC ACTIVITY AND PHARMACEUTICAL USE THEREOF” (ONO PHARMACEUTICAL CO., LTD., priority 2017, published 2020).

The target of series [1] is T1, hERG K+ channel (Homo sapiens, UniProt Q12809).
T1 construct: expressed in transfected cells; host or cells: CHO-K1
Kind of series: Evaluation of hERG K+ channel inhibitory activity using cells expressing human ERG (automated patch-clamp, CHO-K1). The class given is cell-based. The note with it: CHO-K1 cells with human ERG gene, tested at 1, 3 and 10 μmol/L, 5-minute incubation. As for the experimental part:
Evaluation of hERG K^+ Channel Inhibitory Activity Using Cells Expressing Human ERG
CHO-K1 cells having the human ERG gene (ether-a-go-go related gene) introduced therein were subcultured in an F-12 medium [F-12 Nutrient Mixture (HAM)] containing 10% inactivated foetal bovine serum, 100 IU/mL penicillin-100 μg/mL streptomycin and 200 μg/mL geneticin.
Patch-clamp was performed in a full-automated manner using CHO-K1 cells having the human ERG gene introduced therein and having a perforated patch formed therein with amphotericin B. For the experiment, a 384-well PatchPlate™ was used and the cell suspension and compounds were added thereto. The IKr current was measured with command voltages of holding potential of −80 mV, depolarization potential of +40 mV (2 seconds) and repolarization potential of −50 mV (2 seconds). The stimulation frequency was twice (single pulse stimulations) before and after the treatment with a drug (the concentrations of a compound for evaluation were 1, 3 and 10 μmol/L, a 5-minute incubation), and the Ikr maximum current was measured. The inhibition (%) on the CHO-K1 cells having the human ERG gene introduced therein was determined by correcting the variation in the maximum tail current before and after addition of the test substance by the variation thereof in the group treated with a medium (inhibition (%)=(1-variation in current before and after addition of a test substance/variation in current before and after addition of a medium)×100). The 50% inhibitory concentration (IC50 value) was calculated from a line connecting two points on both sides of the inhibition of 50%.
For orientation: The hERG channel carries a current that helps repolarise heart muscle cells.

The target of series [2] is T2, human SSTR2 (Homo sapiens, UniProt P30874).
T2 construct: Myc; expressed in transfected cells
Description: Evaluation of SSTR2 agonistic activity using cells expressing human SSTR2 (suppression of forskolin-stimulated cAMP production, SSTR2-CHO-K1). The class given is cell-based. The note with it: suppression of cAMP production by forskolin stimulation, 1000 nmol/L octreotide = 100%. For orientation: Cyclic AMP is a second messenger, typically raised through Gs and lowered through Gi signalling.

Series [3] relates to GH secretion. Kind of series: Evaluation of suppression of growth hormone (GH) secretion using rats (GHRH-induced). The class given is in vivo. The settings on record: Rattus norvegicus, 5 min, oral, dosage of 1 mg/kg, GHRH given 8 hours after dosing, blood GH 5 minutes after GHRH. Here is the method:
A medium (distilled water (Otsuka distilled water, Otsuka Pharmaceutical Factory, Inc.)) or a test compound dissolved in the medium was orally administered to rats (7-week old male Crl:CD(SD) IGS rats (Charles River Laboratories Japan, Inc.)) and after 7 hours and 57 minutes, the animals were administered with 50 mg/kg of pentobarbital sodium (Somnopentyl, Kyoritsu Seiyaku Corporation) via the tail vein for anaesthesia. Three minutes after administration of pentobarbital sodium, the rats were administered with 0.01 mg/kg of growth hormone-releasing hormone (GHRH, Bachem) via the tail vein to induce GH secretion. In order to measure the blood GH concentration, 0.2 mL of blood was collected through the jugular vein at 5 minutes after administration of GHRH. The collected blood was centrifuged at 4° C., 13,000×g for 5 minutes to obtain plasma. The blood GH concentration was measured by using Rat/Mouse Growth Hormone ELISA (Millipore) following the instruction of the kit. The percentage (%) of suppression of GH secretion was determined by using the obtained blood GH concentration and the equation {[suppression (%) of GH secretion]=([blood GH concentration of the group administered with the medium]−[blood GH concentration of the group administered with a test compound])/[blood GH concentration of the group administered with the medium]×100}. In the equation, the group administered with the medium represents the group of animals administered with the medium and the group administered with a test compound represents the group of animals administered with a test compound dissolved in the medium.

The subject of series [4] is Chinese hamster lung-derived CHL/IU cells. Kind of series: Evaluation of phospholipidosis induction ability using cultured cell line (NBD-PE incorporation). It counts as cell-based. The note with it: 24 hours, positive = 25% or more of amiodarone maximum reaction at cell viability 50% or more; for phospholipidosis induction ability (judgement): 6.25-100 μmol/L. As for the experimental part: Chinese hamster lung-derived CHL/IU cells were suspended in an MEM-E culture solution containing non-essential amino acids, sodium pyruvate and 10% foetal bovine serum and seeded in a 96-well plate. The cells cultured overnight in an incubator (5% carbon dioxide, 95% air, 37° C.) were further cultured for 24 hours after replacing the culture solution with a culture solution containing 6.25, 12.5, 25, 50 or 100 μmol/L of a test substance and NBD-PE (fluorescence label N-(7-nitrobenz-2-oxa-1,3-diazol-4-yl)-1,2-dihexadecanoyl-sn-glycero-3-phosphoethanolamine triethylammonium salt) obtained from Molecular Probes. The phospholipidosis induction ability was evaluated by measuring the concentration of NBD-PE incorporated into the cells. Specifically, the cells were washed twice with PBS and then measured for the fluorescence of NBD-PE (excitation wavelength: 485 nm, fluorescence wavelength: 535 nm) incorporated in the cells on a SpectraMax plate reader available from Molecular Devices, LLC. for evaluation. After measurement of the fluorescence of NBD-PE, the cell viability was evaluated with Premix WST-1 Cell Proliferation Assay System available from TaKaRa Bio Inc. The phospholipidosis induction ability was judged to be positive when, at a dose that provided a cell viability of 50% or more, the reaction (the concentration of NBD-PE incorporated after administration of a test substance) was 25% or more of the maximum reaction of a positive control amiodarone (the concentration of NBD-PE incorporated into the cells after administration of amiodarone was regarded as 100%).

The target of series [5] is somatostatin receptor subtype 4 (SSTR4) (Homo sapiens, UniProt P31391). The settings on record: reported in background art; cited from earlier work.
Series [6] has as its target somatostatin receptor subtype 1 (SSTR1) (Homo sapiens, UniProt P30872). The note with it: reported in background art; cited from earlier work.
In series [7] the target is somatostatin receptor subtype 2 (SSTR2) (Homo sapiens, UniProt P30874). The note with it: reported in background art; cited from earlier work.
For series [8], the target named is somatostatin receptor subtype 3 (SSTR3) (Homo sapiens, UniProt P32745). The settings on record: reported in background art; cited from earlier work.
Series [9] concerns gastric acid secretion. Description: Evaluation of suppression of gastric acid secretion using rats (pyloric ligation). The class given is in vivo, rat. The note with it: continuous intravenous administration, 1 μg/kg/h.

T1 sequence (Q12809 whole entry): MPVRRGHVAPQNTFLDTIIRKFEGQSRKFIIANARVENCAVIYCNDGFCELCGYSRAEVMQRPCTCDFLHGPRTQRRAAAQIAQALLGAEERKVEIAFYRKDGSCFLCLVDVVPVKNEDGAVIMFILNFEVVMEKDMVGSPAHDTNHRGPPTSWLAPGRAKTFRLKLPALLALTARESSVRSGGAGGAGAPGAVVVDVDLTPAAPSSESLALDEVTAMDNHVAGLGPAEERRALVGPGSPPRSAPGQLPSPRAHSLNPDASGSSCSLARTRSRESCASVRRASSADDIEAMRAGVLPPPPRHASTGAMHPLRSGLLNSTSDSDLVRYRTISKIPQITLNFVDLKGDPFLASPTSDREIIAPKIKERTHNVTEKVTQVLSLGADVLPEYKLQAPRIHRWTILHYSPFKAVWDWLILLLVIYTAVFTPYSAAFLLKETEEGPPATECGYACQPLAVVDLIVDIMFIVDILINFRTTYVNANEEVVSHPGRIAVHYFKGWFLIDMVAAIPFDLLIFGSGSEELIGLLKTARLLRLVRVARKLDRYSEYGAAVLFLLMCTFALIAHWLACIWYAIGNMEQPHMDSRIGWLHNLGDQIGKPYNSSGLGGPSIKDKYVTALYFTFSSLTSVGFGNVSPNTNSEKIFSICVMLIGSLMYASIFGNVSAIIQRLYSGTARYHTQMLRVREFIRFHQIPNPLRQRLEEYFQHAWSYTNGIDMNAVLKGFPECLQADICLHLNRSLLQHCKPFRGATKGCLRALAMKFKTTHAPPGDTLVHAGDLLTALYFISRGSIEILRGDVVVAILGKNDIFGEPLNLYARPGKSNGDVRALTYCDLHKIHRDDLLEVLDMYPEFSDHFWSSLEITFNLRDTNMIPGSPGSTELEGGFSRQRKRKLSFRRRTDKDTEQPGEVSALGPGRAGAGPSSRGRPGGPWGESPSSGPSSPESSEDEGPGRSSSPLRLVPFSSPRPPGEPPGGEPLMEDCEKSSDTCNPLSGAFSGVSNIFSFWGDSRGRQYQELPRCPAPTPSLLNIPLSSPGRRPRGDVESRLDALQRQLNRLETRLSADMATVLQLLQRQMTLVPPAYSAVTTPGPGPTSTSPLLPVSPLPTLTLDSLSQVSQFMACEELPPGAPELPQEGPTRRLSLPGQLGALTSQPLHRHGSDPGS
T2 sequence (P30874 whole entry): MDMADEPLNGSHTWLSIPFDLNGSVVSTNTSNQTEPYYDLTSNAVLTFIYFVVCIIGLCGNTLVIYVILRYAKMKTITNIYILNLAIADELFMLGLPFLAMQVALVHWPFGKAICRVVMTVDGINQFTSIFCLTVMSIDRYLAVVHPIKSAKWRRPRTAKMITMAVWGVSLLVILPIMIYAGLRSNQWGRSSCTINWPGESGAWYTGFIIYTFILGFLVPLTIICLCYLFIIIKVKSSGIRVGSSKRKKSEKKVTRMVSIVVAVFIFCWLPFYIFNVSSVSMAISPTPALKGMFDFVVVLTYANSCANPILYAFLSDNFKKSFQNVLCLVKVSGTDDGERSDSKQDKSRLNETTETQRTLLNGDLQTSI
Sequence of somatostatin receptor subtype 1 (SSTR1) (P30872 whole entry, species assumed): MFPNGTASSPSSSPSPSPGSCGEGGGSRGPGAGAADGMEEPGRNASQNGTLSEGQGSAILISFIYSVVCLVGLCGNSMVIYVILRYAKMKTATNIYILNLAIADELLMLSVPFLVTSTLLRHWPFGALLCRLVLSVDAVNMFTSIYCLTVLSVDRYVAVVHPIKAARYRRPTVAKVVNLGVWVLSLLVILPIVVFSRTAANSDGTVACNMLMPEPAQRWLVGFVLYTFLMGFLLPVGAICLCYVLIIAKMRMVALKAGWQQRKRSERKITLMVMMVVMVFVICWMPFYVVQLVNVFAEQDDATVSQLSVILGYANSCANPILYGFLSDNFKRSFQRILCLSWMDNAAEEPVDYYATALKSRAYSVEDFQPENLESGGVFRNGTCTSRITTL
Sequence of somatostatin receptor subtype 3 (SSTR3) (P32745 whole entry, species assumed): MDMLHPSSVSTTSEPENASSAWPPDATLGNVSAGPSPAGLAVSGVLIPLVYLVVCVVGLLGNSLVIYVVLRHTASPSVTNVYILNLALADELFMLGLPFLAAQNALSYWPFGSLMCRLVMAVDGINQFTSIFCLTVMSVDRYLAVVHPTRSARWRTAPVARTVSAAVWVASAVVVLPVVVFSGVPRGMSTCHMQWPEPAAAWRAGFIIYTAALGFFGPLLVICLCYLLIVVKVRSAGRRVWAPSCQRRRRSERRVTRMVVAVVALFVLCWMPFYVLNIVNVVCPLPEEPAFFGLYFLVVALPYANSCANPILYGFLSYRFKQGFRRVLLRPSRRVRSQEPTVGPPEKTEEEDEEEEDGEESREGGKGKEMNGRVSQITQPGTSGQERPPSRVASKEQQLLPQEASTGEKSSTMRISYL
Sequence of somatostatin receptor subtype 2 (SSTR2) (P30874 whole entry, species assumed): as the sequence (P30874 whole entry) above
Sequence of somatostatin receptor subtype 4 (SSTR4) (P31391 whole entry, species assumed): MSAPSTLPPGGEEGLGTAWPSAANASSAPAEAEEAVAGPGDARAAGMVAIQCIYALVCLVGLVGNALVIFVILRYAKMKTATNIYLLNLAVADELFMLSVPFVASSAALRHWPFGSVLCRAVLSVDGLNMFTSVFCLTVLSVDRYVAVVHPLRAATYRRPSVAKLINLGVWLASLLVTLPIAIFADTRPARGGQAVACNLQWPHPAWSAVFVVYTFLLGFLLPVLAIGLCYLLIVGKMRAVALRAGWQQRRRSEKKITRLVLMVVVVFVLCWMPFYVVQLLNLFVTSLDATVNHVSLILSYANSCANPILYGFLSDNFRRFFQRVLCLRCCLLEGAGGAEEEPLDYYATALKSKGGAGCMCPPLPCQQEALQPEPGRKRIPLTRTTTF

Compound `Cc1ncc(-c2cc(F)cc(F)c2)c(N2CC[C@@H](NCCC(F)(F)F)[C@@H](O)C2)c1-c1nc2cc(F)c(F)cc2[nH]1` [Example 3(12), (3S,4R)-1-[3-(5,6-difluoro-1H-benzimidazol-2-yl)-5-(3,5-difluorophenyl)-2-methyl-4-pyridinyl]-4-[(3,3,3-trifluoropropyl)amino]-3-piperidinol] yielded an IC50 in series [1] of 5100 nM. For the same compound, the response in series [2] was half-maximal at 1 nM (EC50). The inhibition in vivo at 1 mg/kg in [3] is 85%. In addition, the “phospholipidosis induction ability (judgement)” value in series [4] is “negative”.

In [1], `COC(=O)c1cc(F)cc2nc(-c3cncc(-c4cc(F)ccc4F)c3N3CC[C@@H](N)[C@@H](O)C3)[nH]c12` [Example 4(16), Methyl 2-{4-[(3S,4R)-4-amino-3-hydroxy-1-piperidinyl]-5-(2,5-difluorophenyl)-3-pyridinyl}-5-fluoro-1H-benzimidazole-7-carboxylate] came in with an IC50 of 3900 nM. For the same compound, the EC50 in series [2] worked out at 0.005 nM. The compound also came in with an inhibition in vivo at 1 mg/kg in series [3] of 67%. Besides, the “concentration at which judged to be positive in phospholipidosis induction ability” value in series [4] is 25 µM.

In the case of `CCN[C@@H]1CCN(c2c(-c3nc4cc(F)c(F)cc4[nH]3)cncc2-c2cc(F)ccc2F)C[C@@H]1O` [Example 5(4), (3S,4R)-1-[3-(5,6-difluoro-1H-benzimidazol-2-yl)-5-(2,5-difluorophenyl)-4-pyridinyl]-4-(ethylamino)-3-piperidinol], in series [1], half-maximal inhibition (IC50) was put at 8400 nM. This compound yielded an EC50 in series [2] of 0.031 nM. In series [3], this compound registered an inhibition in vivo at 1 mg/kg of 90%. The “phospholipidosis induction ability (judgement)” value in series [4] is given as “negative”.

`COc1cc2nc(-c3cncc(-c4cc(F)cc(F)c4)c3N3CC[C@@H](NCCC(F)(F)F)[C@@H](O)C3)[nH]c2cc1F` [Example 5(6), (3S,4R)-1-[3-(3,5-difluorophenyl)-5-(6-fluoro-5-methoxy-1H-benzimidazol-2-yl)-4-pyridinyl]-4-[(3,3,3-trifluoropropyl)amino]-3-piperidinol] gave a half-inhibitory concentration (IC50) in [1] of at least 10000 nM. Further, the EC50 in series [2] was determined as 0.067 nM. The same compound yielded an inhibition in vivo at 1 mg/kg in [3] of 83%. For the same compound, the “phospholipidosis induction ability (judgement)” value in series [4] is listed as “negative”.

The compound `O[C@H]1CN(c2c(-c3cc(F)cc(F)c3)cncc2-c2nc3cc(F)c(F)cc3[nH]2)CC[C@H]1NC1COC1` [Example 5, (3S,4R)-1-[3-(5,6-difluoro-1H-benzimidazol-2-yl)-5-(3,5-difluorophenyl)-4-pyridinyl]-4-(3-oxetanylamino)-3-piperidinol] yielded an IC50 in series [1] of 7600 nM. In series [2], the EC50 came out at 0.14 nM. Besides, in series [3], 1 mg/kg produced 92% inhibition in vivo. Besides, in series [4], the “phospholipidosis induction ability (judgement)” value was “negative”.

As to `CC(C)[C@@H]1NC(=O)[C@H](CCCCN)NC(=O)[C@@H](Cc2c[nH]c3ccccc23)NC(=O)[C@H](Cc2ccc(O)cc2)NC(=O)[C@@H](NC(=O)[C@H](N)Cc2ccc3ccccc3c2)CSSC[C@@H](C(=O)N[C@H](C(N)=O)[C@@H](C)O)NC1=O` [lanreotide acetate], the “binding to SSTR4” value in series [5] is “do not bind”. Also, the “binding to SSTR1” value in [6] is “do not bind”. Further, the “binding affinity to SSTR2” value in series [7] is “high affinity”. For the same compound, the “binding affinity to SSTR3” value in series [8] is reported as “moderate affinity”.

As to `C[C@@H](O)[C@@H]1NC(=O)[C@H](CCCCN)NC(=O)[C@@H](Cc2c[nH]c3ccccc23)NC(=O)[C@H](Cc2ccccc2)NC(=O)[C@@H](NC(=O)[C@H](N)Cc2ccccc2)CSSC[C@@H](C(=O)N[C@H](CO)[C@@H](C)O)NC1=O` [octreotide], the “percentage of suppression of gastric acid secretion” value in [9] is reported as 39%.

The IC50 is the concentration needed to halve the response being measured. The low end stands for greater potency, the high end for weaker potency. In general, EC50 refers to the concentration needed to bring the measured effect to its halfway point. Read a high EC50 as lower potency in that assay. For orientation: inhibition in vivo means the drop in the measured response relative to a control, in per cent. A high value points to a strong effect.
